The results in this text go back to ChEMBL document CHEMBL1201862, “PubChem BioAssay data set” (2004).

Structures are written as SMILES.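 Tested at 5 concentrations; 48 h exposure; 96-well plates; endpoints linearly interpolated, else capped at highest concentration. The concentration for 50% growth inhibition is given as GI50.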 Calls of active or inactive are those of the source. Cut-off read from the data, not from the text of the source: active = GI50 up to about 1.1 µM and inactive = higher.

Test systems include MDA-MB-435; RPMI-8226; MCF7; K562; SF-268; NCI-H460; SF-539; LOX IMVI; A549; M14; HOP-62; U-251; CCRF-CEM; OVCAR-5; HCT-15; DU-145; RXF 393; UACC-62; CAKI-1.
Holding throughout (experiment): inhibition of tumour cell growth, NCI panel, 48 h

For `Cc1nc(N)c(N2CCN(CN)CC2)c(O)n1`, the GI50 with MDA-MB-435, in the experiment with RPMI-8226, with MCF7, in the experiment on K562, in the experiment with SF-268 and in the experiment with NCI-H460 was > 100 µM (inactive) throughout. The GI50 in the experiment with SF-539, in the experiment with LOX IMVI, in the experiment with A549, in the experiment with M14, in the experiment on HOP-62 and with U-251 was > 100 µM (inactive) in each case. Also, the GI50 was > 100 µM (inactive) with CCRF-CEM, > 100 µM (inactive) in the experiment on OVCAR-5, more than 100 µM in the experiment with HCT-15 and > 100 µM (inactive) in the experiment on DU-145.
For the compound `COC(=O)C1(Cc2ccccc2)Cc2c(C)ccc(C)c2C1=O` (stereo not drawn), the GI50 was 17.4 µM (inactive) in the experiment on MDA-MB-435; 29 µM (inactive) in the experiment on RPMI-8226; 28.7 µM (inactive) with MCF7; 30.5 µM (inactive) in the experiment with K562; 39.6 µM (inactive) in the experiment on SF-268; 31.9 µM (inactive) with NCI-H460. In addition, the GI50 in the experiment with SF-539 is 39.9 µM (inactive); with LOX IMVI, 17.2 µM (inactive); in the experiment with A549 it was 11.1 µM (inactive); in the experiment with M14, 25.1 µM (inactive); in the experiment on HOP-62, 56.9 µM (inactive); with U-251, 30 µM (inactive). The GI50 was 21.8 µM (inactive) in the experiment with RXF 393; 34.8 µM (inactive) in the experiment on CCRF-CEM; 69.5 µM (inactive) in the experiment on OVCAR-5; 11.5 µM (inactive) with UACC-62; 31 µM in the experiment with HCT-15; 49.2 µM (inactive) with DU-145.
Turning to `CCOC(=O)Nc1cc2c(c(N)n1)N=C(c1ccc3ccccc3c1)CN2`, the GI50 in the experiment with MDA-MB-435 is < 0.01 µM (active); with MCF7, 0.192 µM (active); with K562, < 0.01 µM (active); in the experiment on SF-268 it was 1.92 µM (inactive); in the experiment with NCI-H460, 0.0918 µM (active); in the experiment on SF-539, 0.08 µM (active). Also, the GI50 with LOX IMVI is 0.0559 µM (active); in the experiment on A549, 0.299 µM (active); in the experiment with M14 it was 0.617 µM (active); in the experiment with HOP-62 it was 0.0564 µM (active); in the experiment with U-251 it was 0.0339 µM (active); in the experiment on RXF 393 it was 0.105 µM (active). In addition, the GI50 with CCRF-CEM is 0.015 µM (active); in the experiment on OVCAR-5 it was 10.5 µM (inactive); in the experiment with UACC-62, 0.0328 µM (active); with HCT-15 it was 0.0189 µM; with CAKI-1, 1.25 µM (inactive); in the experiment with DU-145, 0.101 µM (active).
Consider `COC(=O)[C@H](Cc1ccccc1)NC(=O)c1ccc(CNC(=O)/C=C/c2cccc(Oc3ccccc3)c2)cc1`, for which the GI50 in the experiment with MDA-MB-435 is 5.35 µM (inactive); in the experiment with RPMI-8226, 28.3 µM (inactive); in the experiment on MCF7, 12.8 µM (inactive); in the experiment on K562 it was 7.08 µM (inactive); in the experiment with SF-268, 14.6 µM (inactive); with NCI-H460, 24.9 µM (inactive). Also, the GI50 with A549 was > 100 µM (inactive); with M14, 11.9 µM (inactive); in the experiment on HOP-62 it was 77.3 µM (inactive); in the experiment with U-251, 18.3 µM (inactive); with RXF 393 it was 7.31 µM (inactive); in the experiment with CCRF-CEM it was 11 µM (inactive). For the same compound, the GI50 in the experiment on OVCAR-5 is > 100 µM (inactive); in the experiment on UACC-62 it was 7.91 µM (inactive); in the experiment with HCT-15, 6.24 µM; in the experiment on CAKI-1, 16.5 µM (inactive); in the experiment with DU-145, 40.6 µM (inactive).
For the compound `CCOc1cc2c(cc1O)/C(=N\OC)C[C@@H]1[C@@H]2CC[C@]2(C)[C@@H](O)CC[C@@H]12`, the GI50 in the experiment on MDA-MB-435 is 0.0282 µM (active); in the experiment with RPMI-8226, 0.167 µM (active); in the experiment with MCF7, 0.0238 µM (active); in the experiment on K562 it was 0.0596 µM (active); in the experiment on SF-268 it was 0.625 µM (active); in the experiment on NCI-H460, 0.308 µM (active). Besides, the GI50 in the experiment with LOX IMVI is 0.122 µM (active); with A549, 0.542 µM (active); in the experiment on M14, 0.15 µM (active); with HOP-62, < 0.0461 µM (active); with U-251, 0.135 µM (active); in the experiment on RXF 393 it was < 0.01 µM (active). Moreover, the GI50 in the experiment on CCRF-CEM is 0.299 µM (active); in the experiment with OVCAR-5 it was 21.6 µM (inactive); in the experiment with UACC-62 it was < 0.0306 µM (active); with HCT-15, 0.0653 µM; with DU-145, 0.326 µM (active).
For the compound `CCCCCCCSCC(O)COC(c1ccccc1)(c1ccccc1)c1ccccc1` (stereo not drawn), the GI50 was 56.4 µM (inactive) in the experiment with MDA-MB-435; 17.5 µM (inactive) with RPMI-8226; 40.1 µM (inactive) in the experiment on MCF7; 54.6 µM (inactive) in the experiment with K562; 20.3 µM (inactive) in the experiment with SF-268; 30.1 µM (inactive) with NCI-H460. Besides, the GI50 is > 100 µM (inactive) in the experiment with SF-539; 36.1 µM (inactive) in the experiment with LOX IMVI; 26.7 µM (inactive) in the experiment on A549; 61.7 µM (inactive) in the experiment with M14; > 100 µM (inactive) in the experiment with HOP-62; 50.9 µM (inactive) in the experiment on U-251. Further, the GI50 with CCRF-CEM is 29.7 µM (inactive); in the experiment with OVCAR-5, 34.8 µM (inactive); in the experiment on UACC-62, 65.8 µM (inactive); in the experiment with HCT-15, 41.6 µM; in the experiment on CAKI-1, 60.4 µM (inactive); in the experiment with DU-145, > 100 µM (inactive).
On to `COP(=O)(/C=C/c1cc(C(=O)OCc2ccccc2)n(S(=O)(=O)c2ccccc2)c1)OC`, for which the GI50 in the experiment with MDA-MB-435, in the experiment with MCF7, in the experiment with K562, in the experiment on SF-268, in the experiment with NCI-H460 and with SF-539 was > 100 µM (inactive) in each case. In addition, the GI50 in the experiment with LOX IMVI, in the experiment on A549, in the experiment with M14, in the experiment on HOP-62, in the experiment on U-251 and in the experiment on RXF 393 was > 100 µM (inactive) each time. Further, the GI50 in the experiment with CCRF-CEM is > 100 µM (inactive); in the experiment with OVCAR-5, > 100 µM (inactive); with UACC-62, > 100 µM (inactive); in the experiment on HCT-15, more than 100 µM; in the experiment with CAKI-1 it was > 100 µM (inactive); in the experiment with DU-145, > 100 µM (inactive).
As to `Cc1ccc(OCC2OC(n3cnc4nc(Nc5ccc(Cl)c(Cl)c5)nc(Cl)c43)CC2Oc2ccc(C)cc2)cc1` (stereo not drawn), the GI50 in the experiment with MDA-MB-435 was > 100 µM (inactive); in the experiment on RPMI-8226, > 100 µM (inactive); in the experiment on MCF7, > 100 µM (inactive); with K562, > 100 µM (inactive); with SF-268, > 100 µM (inactive); with NCI-H460, 27.2 µM (inactive). Moreover, the GI50 in the experiment with A549, with M14, in the experiment with HOP-62, in the experiment on U-251, in the experiment on RXF 393 and in the experiment with CCRF-CEM was > 100 µM (inactive) in each case. The GI50 in the experiment on OVCAR-5 was > 100 µM (inactive); with UACC-62 it was > 100 µM (inactive); with HCT-15 it was more than 100 µM; in the experiment with CAKI-1, > 100 µM (inactive); in the experiment on DU-145, > 100 µM (inactive).
Consider `CCOP(=O)(OCC)C(N)c1ccc(Cl)cc1` (stereo not drawn), for which the GI50 in the experiment on MDA-MB-435, in the experiment on RPMI-8226, in the experiment on MCF7, in the experiment with SF-268, in the experiment with NCI-H460 and in the experiment with SF-539 was > 100 µM (inactive) in each case. Further, the GI50 with LOX IMVI, in the experiment with A549, in the experiment with M14, with U-251, in the experiment with CCRF-CEM and with OVCAR-5 was > 100 µM (inactive) throughout. Also, the GI50 is > 100 µM (inactive) in the experiment with UACC-62, more than 100 µM in the experiment with HCT-15, > 100 µM (inactive) with CAKI-1 and > 100 µM (inactive) with DU-145.
Take `COc1cccc2c1OC1c3ccccc3OCC1(O)C2` (stereo not drawn): the GI50 with MDA-MB-435, with RPMI-8226, with MCF7, in the experiment on K562, with SF-268 and in the experiment with SF-539 was > 100 µM (inactive) in each case. The GI50 in the experiment with LOX IMVI, in the experiment on A549, in the experiment with M14, in the experiment with HOP-62, with U-251 and with CCRF-CEM was > 100 µM (inactive) throughout. The GI50 is > 100 µM (inactive) with OVCAR-5; > 100 µM (inactive) in the experiment with UACC-62; more than 100 µM in the experiment on HCT-15; > 100 µM (inactive) in the experiment with CAKI-1; > 100 µM (inactive) in the experiment with DU-145.
For the compound `CN(C)CCNC(=O)c1cccc2c(NC(CCC(N)=O)C(=O)O)c3ccccc3nc12` (stereo not drawn), the GI50 is 6.14 µM (inactive) in the experiment with MDA-MB-435; 9.57 µM (inactive) in the experiment with RPMI-8226; 4.55 µM (inactive) with MCF7; 4.4 µM (inactive) with K562; 5.14 µM (inactive) in the experiment on SF-268; 11.1 µM (inactive) in the experiment on NCI-H460. In addition, the GI50 is 5.55 µM (inactive) with SF-539; 5.48 µM (inactive) in the experiment with LOX IMVI; 5.08 µM (inactive) in the experiment on A549; 7.55 µM (inactive) in the experiment with M14; 6.4 µM (inactive) in the experiment with HOP-62; 8.15 µM (inactive) in the experiment with U-251. Also, the GI50 was 18.5 µM (inactive) in the experiment on CCRF-CEM; 9.51 µM (inactive) in the experiment with OVCAR-5; 19.9 µM (inactive) with UACC-62; 4.08 µM in the experiment on HCT-15; 11.3 µM (inactive) in the experiment with CAKI-1; 19.5 µM (inactive) with DU-145.
For `O=C(Cn1c(C(=O)/C=C/c2ccc(Cl)cc2)nc2ccccc21)c1ccc(Cl)cc1`, the GI50 in the experiment on MDA-MB-435 was 17.1 µM (inactive); in the experiment on RPMI-8226 it was 6.18 µM (inactive); in the experiment on MCF7, 15.2 µM (inactive); in the experiment on K562, 6.07 µM (inactive); in the experiment with SF-268, 23.3 µM (inactive); in the experiment with NCI-H460 it was 10.9 µM (inactive). Moreover, the GI50 was 18.3 µM (inactive) in the experiment with SF-539; 16 µM (inactive) with LOX IMVI; 21 µM (inactive) in the experiment with A549; 18.1 µM (inactive) with M14; 16.4 µM (inactive) with HOP-62; 11.5 µM (inactive) in the experiment with U-251. For the same compound, the GI50 is 15.5 µM (inactive) in the experiment on RXF 393; 2.7 µM (inactive) in the experiment on CCRF-CEM; 26.8 µM (inactive) in the experiment with OVCAR-5; 15.8 µM (inactive) in the experiment on UACC-62; 15.3 µM in the experiment on HCT-15; 21.7 µM (inactive) in the experiment on DU-145.
